Experimental findings from patent publication US11976280B2, “SMAC/Diablo inhibitors useful for treating cancer” (THE NATIONAL INSTITUTE FOR BIOTECHNOLOGY IN THE NEGEV LTD., priority 2017, dated 2024) are described below.

The subject of data set [1] is A549-derived xenograft tumors. The experiment in a line: TUNEL and q-PCR of apoptosis-associated genes in A549-derived xenograft tumors. In kind it is in vivo, mice. As for the experimental part:
Total RNA was isolated from cells using an RNeasy mini kit (Qiagen) according to the manufacturer's instructions. Complementary DNA was synthesized from 1 μg total RNA using a Verso cDNA synthesis kit (Thermo Scientific). q-PCR was performed using specific primers (KiCqStart Primers; Sigma Aldrich) in triplicates, using Power SYBER green master mix (Applied Biosystems, Foster City, CA). The levels of the target genes were normalized relative to β-actin mRNA levels. Samples were amplified by a 7300 Real Time PCR System (Applied Biosystems) 95° C. for 2 minutes and for 40 cycles using the following PCR parameters: 95° C. for 15 seconds, 60° C. for 1 minute, and 72° C. for 1 minute. The copy numbers for each sample were calculated by the CT-based calibrated standard curve method. The mean fold changes (±SEM) of the three replicates were calculated.
Tumor sections were processed for the TUNEL assay using the DeadEnd Fluorometric TUNEL system (Promega, Madison, WI) according to the manufacturer's instructions. […]
As SMAC/Diablo released from mitochondria during apoptosis binds to and counters the activities of IAPs leading to the release of bound caspases (Verhagen, A. M., et al. 2000. Cell 102, 43-53), the expression levels of XIAP1, cIAP1, and cIAP2, as well as of pro-apoptotic proteins including caspases 3, 8, and 9, Cyto c, and AIF were analyzed.

The test system of data set [2] is A549 cells-derived tumors. Description: Phospholipids, phosphatidylcholine and phosphatidylethanolamine in tumor lipid extracts. In kind it is in vivo, mice. The protocol: Lipids were extracted from si-NT-TTs and si-hSMAC-A-TTs as described previously (Folch, J., M. et al., 1957. J Biol Chem, 226(1): p. 497-509.). Briefly, 10-20 mg of tissue were added to CHCl3/MeOH (2:1, v/v) (7.5 mg/ml) and homogenized twice using ultrasound sonication. Water (12 μl/mg) was added to the suspension; the tube was closed with a glass cap and shaken at room temperature for 2 h at 400 rpm. The suspension was heated to 60° C. for […] and subsequently stored at 8° C. for more than 1 h in order to denature proteolipids. Undissolved material was separated by filtration through a Syringe Filter (0.4 μm pore). After evaporation of solvent, the residue was re-dissolved in CHCl3/MeOH. The suspension was filtered and the solvent was evaporated again. The weight of the extracted lipids was determined.
Phospholipids content of the lipids extracted from si-NT-TTs and si-hSMAC-A-TTs as described above was determined based on the formation of a complex of the phospholipids with ammonium ferrothiocyanate as described previously (Stewart, J. C., 1980. Anal Biochem, 104(1): p. 10-14). The absorbance at 488 nm was determined and the amounts of phospholipids were calculated using phosphatidylcholine (PC) a standard (10-100 μg). For phosphatidylcholine (PC) determination, samples of the extracted lipids were analyzed using ammonium thiocyanatocobaltate reagent as described previously (Yoshida, Y., E. et al., 1979. J Biochem, 86(3): p. 825-828). The absorbance at 316 nm was measured and PC amount was calculated using a phosphatidylcholine standard (10-100 μg).
Phosphatidylethanolamine (PE) content of the lipids extracted from si-NT-TTs and si-hSMAC-A-TTs was measured using a fluorescence-based assay as described previously (Jae-Yeon Choi et al. 2018. J. Biol. Chem 293, 1493-1503). Briefly, samples of lipid extracted from tumors as described above were dissolved in chloroform and after then chloroform was evaporated under gas nitrogen. The dried extract was then re-suspended in 0.8 mM Triton X-100. To 20 μl of lipid samples, reaction mixture including 50 μl reaction buffer (80 mM NaCl, 2 mM KPO4, pH 7.4), 30 μL H2O and 12.5 μl borate buffer (100 mM boric acid, NaCl 75 mM, sodium tetraborate 25 mM, pH, 9) were added and placed in 96 well plate and mixed well. 12.5 μl of 100 μM distyrylbenzene-bis-aldehyde (DSB-3), kindly provided by Prof. Uwe Bunz, (Organisch-Chemisches Institute, Heidelberg, Germany) prepared in 10 mM KH2PO4, pH 7.4 were then added. After 2 h of incubation in dark with shaking at 100 rpm, fluorometric detection of PE was carried out at λex=403 nm, λem=508 nm, using a plate reader. A standard curve using purified PE was carried out in parallel.
The amounts of total phospholipids and PC in si-NC-TTs and si-SMAC-A-TTs lipid extracts were analyzed (FIG. 10F). […]

d = 2'-deoxy (DNA); r = 2'-OH (RNA)

For the substance “si-hSMAC-A: siRNA to human SMAC/Diablo; sense 5′AAGCGGUGUUUCUCAGAAUUGtt3′ (SEQ ID NO:20), antisense 5′AACAAUUCUGAGAAACCCGCtt3′ (SEQ ID NO:21) (sense AAGCGGUGUUUCUCAGAAUUGTT; antisense AACAAUUCUGAGAAACCCGCTT; sense: sugars from the 5' end r21 d2, backbone not given here; antisense: sugars from the 5' end r20 d2, backbone not given here)”, in data set [1] (mouse, in vivo), the “apoptosis, TUNEL staining” value was “lack of significant apoptosis”. Besides, the “mRNA expression levels of XIAP1, cIAP1, cIAP2, caspases 3, 8, 9, Cyto c, AIF” value in data set [1] (q-PCR) is on record as “noticeably decreased”. Besides, in data set [2] (relative to si-NT-TTs), the “decrease in phospholipids and specifically PC content” value was 40-50%; the “increase in phosphatidylethanolamine (PE) levels” value is on record as 2 fold. Further, in data set [2] (tumor lipid extracts), the “decrease in PC” value is listed as 37% and the “decrease in total phospholipids” value is listed as 47%.
